These results are taken from US8168806B2, “Boron chelate complexes” (Chemetall GmbH, priority 2001, dated 2012).

SMILES strings stand for the structures. Read-outs that look alike come from different tables or passages of the source.

The conditions of data set [1]: in propylene carbonate; Xu and Angell 2001; cited from earlier work.
For data set [2] the following is noted: 5% solution in water, stirring for 2 hours, room temperature.
The conditions of data set [3]: prior art statement; cited from earlier work.
For data set [4] the following is noted: room temperature; for Cond. (conductivity): at the concentration (mmole/g) printed in the cell to the left.
For data set [5] the following is noted: room temperature.
The conditions of data set [6]: 0.5 molar solution in γ-butyrolactone, nickel electrodes, FIG. 1.
The conditions of data set [7]: thermogravimetry.
Data set [8] can be described thus: Qualitative solubility of the product of Example 3 in organic solvents. The class given is physicochemical. To be noted: in propylene carbonate, γ-butyrolactone, 1,2-dimethyoxyethane, acetone and dimethylformamide.
Setting [9] is: in 1,2-DME (1,2-dimethoxyethane).

Take `O=C1CC(=O)O[B-]2(O1)OC(=O)CC(=O)O2.[Li+]` [LMB, Lithium-bis(malonato)borate]: the Solubility in data set [1] is 80 mM; in data set [5] (setting [9]), 0.003 mol/kg; in data set [5] (in PC (propylene carbonate)), 0.02 mol/kg; in data set [5] (in THF (tetrahydrofuran)), 0.09 mol/kg; in data set [5] (in acetone) it was 0.03 mol/kg; in data set [5] (in γ-BL (γ-butyrolactone)), 0.13 mol/kg. The same compound registered a Degree of hydrolysis in data set [2] of 5%. Besides, the “Electrochemical stability / electrochemical window up to” value in data set [3] was “up to 5 V”. Also, the “Cond. (conductivity)” value in data set [4] (in THF) is listed as 0.01 mS/cm; in data set [4] (in γ-BL), 1.65 mS/cm.

Take `CC1O[B-]2(OC1=O)OC(=O)C(C)O2.[Li+]` (stereo not shown) [LLB, Lithium-bis(lactato)borate]: the “Concn. column: solubility in words” value in data set [4] (in 1,2-DME) and in data set [4] (in THF) was “insoluble” in each case. Moreover, the “Cond. (conductivity)” value in data set [4] (in 1,2-DME) was found to be 0 mS/cm; in data set [4] (in THF) it was 0 mS/cm; in data set [4] (in γ-BL), 0.01 mS/cm. In addition, the Solubility was under 0.01 mol/kg in data set [5] (setting [9]); under 0.01 mol/kg in data set [5] (in PC (propylene carbonate)); under 0.01 mol/kg in data set [5] (in THF (tetrahydrofuran)); under 0.01 mol/kg in data set [5] (in acetone); 0.02 mol/kg in data set [5] (in γ-BL (γ-butyrolactone)).

As for `CC1O[B-]2(OC(=O)C(=O)O2)OC1=O.[Li+]` (stereo not shown) [LLOB, Lithium-(lactato,oxalato)borate], the “Cond. (conductivity)” value came out at 6.52 mS/cm in data set [4] (in 1,2-DME), 2.91 mS/cm in data set [4] (in THF) and 2.61 mS/cm in data set [4] (in γ-BL). In addition, in data set [6], the “Electrochemical window (upper limit of stability, Li/Li+=0)” value is listed as “ca. 5 V”. The Solubility in data set [5] (setting [9]) was determined as 0.93 mol/kg; in data set [5] (in PC (propylene carbonate)), 0.17 mol/kg; in data set [5] (in THF (tetrahydrofuran)), 1.59 mol/kg; in data set [5] (in acetone) it was 1.38 mol/kg; in data set [5] (in γ-BL (γ-butyrolactone)), 0.96 mol/kg. In addition, the “TGA: decomposition starts at” value in data set [7] is “ca. 270 °C”.

In the case of `O=C1CC(=O)O[B-]2(O1)OC(=O)C(=O)O2.[Li+]` [LOMB, Lithium-(malonato,oxalato)borate], the Degree of hydrolysis in data set [2] amounted to 15%. Further, the “Cond. (conductivity)” value in data set [4] (in THF) is 0.41 mS/cm; in data set [4] (in γ-BL), 3.59 mS/cm. Besides, the Solubility in data set [5] (setting [9]) was determined as 0.20 mol/kg; in data set [5] (in PC (propylene carbonate)) it was 0.17 mol/kg; in data set [5] (in THF (tetrahydrofuran)), 0.17 mol/kg; in data set [5] (in acetone), 0.43 mol/kg; in data set [5] (in γ-BL (γ-butyrolactone)), 0.62 mol/kg.

Consider `O=C1O[B-]2(OC1=O)OC(=O)c1ccccc1O2.[Li+]` [LOSB, Lithium-(oxalato,salicylato)borate], for which the figures for the “Cond. (conductivity)” value in data set [4] (in 1,2-DME) and in data set [4] (in THF) were 4.17 mS/cm and 3.17 mS/cm, respectively. For the same compound, the Solubility in data set [5] (setting [9]) turned out to be 0.43 mol/kg; in data set [5] (in PC (propylene carbonate)), 1.50 mol/kg; in data set [5] (in THF (tetrahydrofuran)) it was 1.21 mol/kg; in data set [5] (in acetone) it was 0.51 mol/kg; in data set [5] (in γ-BL (γ-butyrolactone)), 0.98 mol/kg. Besides, in data set [7], the “TGA: decomposition starts at” value was “ca. 210 °C”.

With `O=C1O[B-]2(OC1=O)OC(=O)c1ccccc1O2.[H+]` [HSOB, hydrogen-(salicylato, oxalato)borate], the Solubility in words entry in data set [8] was “extremely soluble”.

Consider `O=C1O[B-]2(OC1=O)OC(=O)C(=O)O2.[Li+]` [LOB, Lithium-bis(oxalato)borate], for which, in data set [2], the Degree of hydrolysis is over 50%. The “Electrochemical stability / electrochemical window up to” value in data set [3] is listed as “about 4.5 V”. Further, the “Cond. (conductivity)” value in data set [4] (in γ-BL) was 6.96 mS/cm. Further, the Solubility is 1.30 mol/kg in data set [5] (setting [9]); 0.88 mol/kg in data set [5] (in PC (propylene carbonate)); 1.90 mol/kg in data set [5] (in THF (tetrahydrofuran)); 1.82 mol/kg in data set [5] (in acetone); 1.55 mol/kg in data set [5] (in γ-BL (γ-butyrolactone)).
